Converted amounts (≈) assume the structure as drawn. Read-outs that look alike come from different tables or passages of the source. Where only a bound is given, the exact number is not on record here.

Type in all cases: cell-based
For assay [1], the system named is Mycobacterium massiliense. The assay can be described thus: MIC by micro broth dilution method (resazurin microtiter assay). The conditions noted are these: Mycobacteroides abscessus, MH Culture Medium, read-out: Minimum Inhibitory Concentration (MIC).
In assay [2] the test system is Mycobacterium avium. Described as above. The conditions noted are these: read-out: Minimum Inhibitory Concentration (MIC).
In assay [3] the test system is Mycobacterium intracellulare. The description is as above. The note with it: Mycobacterium intracellulare, MH Culture Medium, read-out: Minimum Inhibitory Concentration (MIC).
In assay [4] the test system is Mycobacterium kansasii. The assay is described as above. The note with it: Mycobacterium kansasii, read-out: Minimum Inhibitory Concentration (MIC).
The test system of another assay is Mycobacterium fortuitum. The description is as above. The conditions noted are these: Mycolicibacterium fortuitum, MH Culture Medium, read-out: Minimum Inhibitory Concentration (MIC).
Another assay has as its system Mycodacterium chelonei. The assay is described as above. The conditions noted are these: MH Culture Medium; Chelonei (standard strain); read-out: Minimum Inhibitory Concentration (MIC).
Assay [5] relates to Mycobacterium kansasii. The assay can be described thus: MBC test (plating on agar, CFU count). The note with it: Mycobacterium kansasii, Mycobacterium kansasii, read-out: Minimum Bactericidal Concentration (MBC).
Assay [6] relates to Mycobacterium abscessus. In words: MBC test (plating on agar, CFU count). The conditions noted are these: for Minimum Bactericidal Concentration (MBC): MH Culture Medium; for MBC: Mycobacteroides abscessus, 7H9 Culture Medium, read-out: Minimum Bactericidal Concentration (MBC).
Assay [7] has as its system Mycobacterium abscessus. The assay can be described thus: MIC by micro broth dilution method (resazurin microtiter assay). The note with it: Mycobacteroides abscessus, read-out: Minimum Inhibitory Concentration (MIC).
Assay [8] deals with Mycobacterium avium. The assay can be described thus: MBC test (plating on agar, CFU count). The note with it: Mycobacterium avium, read-out: Minimum Bactericidal Concentration (MBC).
The mark [9] stands for this setting: clinically isolated strain Massiliense (D10).
The mark [10] stands for this setting: clinically isolated strain Massiliense (D14).
Where [11] appears, read: clinically isolated strain Massiliense (D18).
The mark [12] stands for this setting: MH Culture Medium, Avium (standard strain).
Where [13] appears, read: MH Culture Medium, clinically isolated strain Avium (S31).
Where [14] appears, read: MH Culture Medium, clinically isolated strain Avium (S123).
The mark [15] stands for this setting: MH Culture Medium, clinically isolated strain Avium (S559).
Where [16] appears, read: MH Culture Medium, clinically isolated strain Avium (S568).
The mark [17] stands for this setting: MH Culture Medium, clinically isolated strain Avium (S577).
[18] abbreviates: MH Culture Medium, clinically isolated strain Avium (S597).
[19] abbreviates: MH Culture Medium, clinically isolated strain Avium (S602).
Setting [20] is: Intracellulare (standard strain).
Where [21] appears, read: clinically isolated strain Intracellulare (S90).
Where [22] appears, read: clinically isolated strain Intracellulare (S261).
The mark [23] stands for this setting: clinically isolated strain Intracellulare (S269).
The mark [24] stands for this setting: clinically isolated strain Intracellulare (S290).
Setting [25] is: clinically isolated strain Intracellulare (S291).
[26] abbreviates: clinically isolated strain Intracellulare (S298).
[27] abbreviates: clinically isolated strain Intracellulare (S541).
[28] abbreviates: clinically isolated strain Intracellulare (S623).
Where [29] appears, read: clinically isolated strain Intracellulare (ZPS).
[30] abbreviates: clinically isolated strain intracellulare (S442).
Where [31] appears, read: MH Culture Medium, Kansasii (standard strain).
[32] abbreviates: MH Culture Medium, clinically isolated strain Kansasii (S9).
Where [33] appears, read: MH Culture Medium, clinically isolated strain Kansasii (S199).
[34] abbreviates: MH Culture Medium, clinically isolated strain Kansasii (S520).
Where [35] appears, read: MH Culture Medium, clinically isolated strain Kansasii (S609).
Setting [36] is: clinically isolated strain Fortuitum (S103).
Setting [37] is: clinically isolated strain Fortuitum (S111).
Setting [38] is: 7H9 Broth, Mycobacterium avium Smooth.
The mark [39] stands for this setting: MH Broth, Mycobacterium avium Smooth.
The mark [40] stands for this setting: 7H9 Culture Medium, Mycobacterium avium Smooth.
[41] abbreviates: MH Culture Medium, Mycobacterium avium Smooth.

With `COc1c(N2C[C@@H]3CCCN[C@@H]3C2)c(F)cc2c(=O)c(C(=O)O)cn(C3CC3)c12` [Moxifloxacin, moxifloxacin], the MIC in assay [1] (setting [9]) worked out at 32 µg/mL (≈ 79.7 µM); in [1] (setting [10]), 32 µg/mL (≈ 79.7 µM); in [1] (setting [11]) it was 8 µg/mL (≈ 19.9 µM); in the assay on Mycobacterium avium [2] (setting [12]), 1 µg/mL (≈ 2.49 µM); in the assay on Mycobacterium avium [2] (setting [13]) it was 8 µg/mL (≈ 19.9 µM); in the assay with Mycobacterium avium [2] (setting [14]), 0.5 µg/mL (≈ 1.25 µM). For the same molecule, the MIC in the assay with Mycobacterium avium [2] (setting [15]) is 1 µg/mL (≈ 2.49 µM); with Mycobacterium avium [2] (setting [16]), 0.5 µg/mL (≈ 1.25 µM); in the assay with Mycobacterium avium [2] (setting [17]) it was 0.5 µg/mL (≈ 1.25 µM); in the assay on Mycobacterium avium [2] (setting [18]), 2 µg/mL (≈ 4.98 µM); in the assay with Mycobacterium avium [2] (setting [19]), 4 µg/mL (≈ 9.96 µM); in assay [3] (setting [20]), 0.25 µg/mL (≈ 0.623 µM). Besides, the MIC in assay [3] (setting [21]) worked out at 2 µg/mL (≈ 4.98 µM); in assay [3] (setting [22]), 2 µg/mL (≈ 4.98 µM); in assay [3] (setting [23]) it was 2 µg/mL (≈ 4.98 µM); in assay [3] (setting [24]), 2 µg/mL (≈ 4.98 µM); in [3] (setting [25]), 1 µg/mL (≈ 2.49 µM); in [3] (setting [26]) it was 2 µg/mL (≈ 4.98 µM). In addition, the MIC in assay [3] (setting [27]) came out at 64 µg/mL (≈ 159 µM); in [3] (setting [28]) it was 2 µg/mL (≈ 4.98 µM); in assay [3] (setting [29]), 1 µg/mL (≈ 2.49 µM); in [3] (setting [30]), 2 µg/mL (≈ 4.98 µM); in the assay on Mycobacterium kansasii [4] (setting [31]), 0.0625 µg/mL (≈ 0.156 µM); in the assay with Mycobacterium kansasii [4] (setting [32]), 0.0625 µg/mL (≈ 0.156 µM). In addition, the MIC with Mycobacterium kansasii [4] (setting [33]) was 0.0625 µg/mL (≈ 0.156 µM); in the assay with Mycobacterium kansasii [4] (setting [34]), 0.0625 µg/mL (≈ 0.156 µM); in the assay with Mycobacterium kansasii [4] (setting [35]), 0.0625 µg/mL (≈ 0.156 µM); with Mycobacterium fortuitum (Fortuitum (standard strain)), 1 µg/mL (≈ 2.49 µM); with Mycobacterium fortuitum (setting [36]), 1 µg/mL (≈ 2.49 µM); in the assay with Mycobacterium fortuitum (setting [37]) it was 0.5 µg/mL (≈ 1.25 µM). Also, the MIC with Mycodacterium chelonei was 4 µg/mL (≈ 9.96 µM).
`O=C(O)c1cn(C2CC2)c2cc(N3CCNCC3)c(F)cc2c1=O` [Ciprofloxacin, ciprofloxacin]: the MIC is more than 64 µg/mL in the assay on Mycobacterium avium [2] (setting [38]); more than 64 µg/mL in the assay with Mycobacterium avium [2] (setting [39]); 16 µg/mL (≈ 48.3 µM) with Mycobacterium abscessus [7] (7H9 Broth); more than 64 µg/mL in the assay on Mycobacterium abscessus [7] (MH Broth); more than 64 µg/mL with Mycobacterium kansasii [4] (7H9 Broth); more than 64 µg/mL in the assay with Mycobacterium kansasii [4] (MH Broth). Moreover, the MBC in the assay on Mycobacterium kansasii [5] (7H9 Culture Medium), in the assay with Mycobacterium kansasii [5] (MH Culture Medium), with Mycobacterium abscessus [6], in the assay with Mycobacterium avium [8] (setting [40]) and with Mycobacterium avium [8] (setting [41]) was more than 64 µg/mL each time. Also, the “Minimum Bactericidal Concentration (MBC)” value in the assay with Mycobacterium abscessus [6] was more than 64 µg/mL.
As for `CO[C@H]1/C=C/O[C@@]2(C)Oc3c(C)c(O)c4c(c3C2=O)C2=NC3(CCN(CC(C)C)CC3)NC2=C(NC(=O)/C(C)=C\C=C\[C@H](C)[C@H](O)[C@@H](C)[C@@H](O)[C@@H](C)[C@H](OC(C)=O)[C@@H]1C)C4=O` [Rifabutin, rifabutin], the MIC in assay [1] (setting [9]) was more than 64 µg/mL; in assay [1] (setting [10]) it was 64 µg/mL (≈ 75.6 µM); in assay [1] (setting [11]), 64 µg/mL (≈ 75.6 µM); in the assay on Mycobacterium avium [2] (setting [12]), 0.0625 µg/mL (≈ 0.0738 µM); with Mycobacterium avium [2] (setting [13]) it was 0.0625 µg/mL (≈ 0.0738 µM); in the assay with Mycobacterium avium [2] (setting [14]), 0.0625 µg/mL (≈ 0.0738 µM). The MIC (with Mycobacterium avium [2] (setting [15]); in the assay on Mycobacterium avium [2] (setting [16]); in the assay with Mycobacterium avium [2] (setting [17]); with Mycobacterium avium [2] (setting [18]); in the assay on Mycobacterium avium [2] (setting [19]); in assay [3] (setting [20])) was 0.0625 µg/mL (≈ 0.0738 µM) in each case. Also, the MIC in [3] (setting [21]) turned out to be 0.125 µg/mL (≈ 0.148 µM); in [3] (setting [22]), 0.25 µg/mL (≈ 0.295 µM); in [3] (setting [23]), 0.0625 µg/mL (≈ 0.0738 µM); in [3] (setting [24]) it was 0.0625 µg/mL (≈ 0.0738 µM); in assay [3] (setting [25]) it was 0.0625 µg/mL (≈ 0.0738 µM); in assay [3] (setting [26]), 0.5 µg/mL (≈ 0.59 µM). In addition, the MIC in assay [3] (setting [27]) was determined as 0.125 µg/mL (≈ 0.148 µM); in [3] (setting [28]), 0.25 µg/mL (≈ 0.295 µM); in assay [3] (setting [29]) it was 0.0625 µg/mL (≈ 0.0738 µM); in [3] (setting [30]), 0.0625 µg/mL (≈ 0.0738 µM); with Mycobacterium kansasii [4] (setting [31]), 0.0625 µg/mL (≈ 0.0738 µM); in the assay with Mycobacterium kansasii [4] (setting [32]), 0.0625 µg/mL (≈ 0.0738 µM). The MIC was found to be 0.0625 µg/mL (≈ 0.0738 µM) in the assay with Mycobacterium kansasii [4] (setting [33]); 0.0625 µg/mL (≈ 0.0738 µM) in the assay on Mycobacterium kansasii [4] (setting [34]); 0.0625 µg/mL (≈ 0.0738 µM) in the assay on Mycobacterium kansasii [4] (setting [35]); 4 µg/mL (≈ 4.72 µM) in the assay with Mycobacterium fortuitum (Fortuitum (standard strain)); 32 µg/mL (≈ 37.8 µM) in the assay with Mycobacterium fortuitum (setting [36]); 4 µg/mL (≈ 4.72 µM) in the assay with Mycobacterium fortuitum (setting [37]). Further, the MIC with Mycodacterium chelonei is 64 µg/mL (≈ 75.6 µM).
As for `NCC[C@H](O)C(=O)N[C@@H]1C[C@H](N)[C@@H](O[C@H]2O[C@H](CN)[C@@H](O)[C@H](O)[C@H]2O)[C@H](O)[C@H]1O[C@H]1O[C@H](CO)[C@@H](O)[C@H](N)[C@H]1O` [Amikacin, amikacin], the MIC in the assay with Mycobacterium avium [2] (7H9 Broth, Mycobacterium avium Rough) was more than 64 µg/mL; with Mycobacterium avium [2] (setting [38]), 2 µg/mL (≈ 3.42 µM); in the assay on Mycobacterium avium [2] (MH Broth, Mycobacterium avium Rough) it was 2 µg/mL (≈ 3.42 µM); in the assay with Mycobacterium avium [2] (setting [39]), 2 µg/mL (≈ 3.42 µM); with Mycobacterium abscessus [7] (7H9 Broth), 32 µg/mL (≈ 54.6 µM); in the assay on Mycobacterium abscessus [7] (MH Broth) it was 16 µg/mL (≈ 27.3 µM). Moreover, the MIC in the assay with Mycobacterium kansasii [4] (7H9 Broth) was 16 µg/mL (≈ 27.3 µM); in the assay on Mycobacterium kansasii [4] (MH Broth) it was 1 µg/mL (≈ 1.71 µM). Further, the MBC in the assay with Mycobacterium kansasii [5] (7H9 Culture Medium) was 64 µg/mL (≈ 109 µM); with Mycobacterium kansasii [5] (MH Culture Medium) it was more than 64 µg/mL; in the assay on Mycobacterium abscessus [6], more than 64 µg/mL; with Mycobacterium avium [8] (7H9 Culture Medium, Mycobacterium avium Rough), more than 64 µg/mL; in the assay on Mycobacterium avium [8] (setting [40]) it was more than 64 µg/mL; in the assay with Mycobacterium avium [8] (MH Culture Medium, Mycobacterium avium Rough) it was more than 64 µg/mL. In addition, in the assay on Mycobacterium avium [8] (setting [41]), the MBC is more than 64 µg/mL. In the assay with Mycobacterium abscessus [6], the “Minimum Bactericidal Concentration (MBC)” value was more than 64 µg/mL.

(Values after patent US20200360520A1, “USE OF RIFAMYCIN-QUINOLIZIDONE COUPLING MOLECULE” (priority 2019, published 2020).)
